Source: patent publication US20090305993A1, “METHODS AND COMPOSITION FOR THE TREATMENT OF GASTROINTESTINAL DISORDERS” (IRONWOOD PHARMACEUTICALS, INC., priority 2006, published 2009)
Where a SMILES comes first, the peptide text is derived from it. Bridges are numbered along the chain shown (N, C = ends).

Assays:
[1] = tested on: CD1 female mice; test: murine gastrointestinal transit assay, chronic dosing; format: in vivo, mouse; settings: oral, daily for 5 days; SEQ ID NO:3 0.06 or 0.25 mg/kg; FIG. 4c
Protocol: The identical experiment was performed to determine if SEQ ID NO:3 is effective in a chronic dosing treatment regimen. Briefly, 8 week old CD1 female mice are dosed orally once a day for 5 days with either SEQ ID NO:3 (0.06 mg/kg or 0.25 mg/kg in 20 mM Tris pH 7.5) or vehicle alone (20 mM Tris pH 7.5). On the 5th day, a GIT assay is performed identical to that above except 200 μl of a 10% charcoal solution is administered. […] The results are shown side by side with acute dosing (1 day).

[2] = tested on: healthy subjects; test: seven-day oral dosing study in humans, bowel habits; format: in vivo, human
Protocol: Seven daily doses of 30, 100, 300, or 1000 μg of chemically synthesized SEQ ID NO:3 were given to 48 healthy subjects. SEQ ID NO:3 or placebo (vehicle) was administered orally in 5.0 mL 50 mM phosphate buffer (pH 6.0) plus 3×20 mL water rinses and 175 mL water after at least a 10-hour fast. In each dosing group, 8 subjects were randomized to receive SEQ ID NO:3 and 4 subjects were randomized to receive placebo. […] The Mean Ease of Passage (FIG. 15d) of stools was tested for subjects treated with 30-1000 μg SEQ ID NO:3.

[3] = molecular target: pepsin (Sus scrofa, UniProt P00791); settings: pH 2.0, 37° C., up to 3 h
pepsin, sequence (P00791 60-385): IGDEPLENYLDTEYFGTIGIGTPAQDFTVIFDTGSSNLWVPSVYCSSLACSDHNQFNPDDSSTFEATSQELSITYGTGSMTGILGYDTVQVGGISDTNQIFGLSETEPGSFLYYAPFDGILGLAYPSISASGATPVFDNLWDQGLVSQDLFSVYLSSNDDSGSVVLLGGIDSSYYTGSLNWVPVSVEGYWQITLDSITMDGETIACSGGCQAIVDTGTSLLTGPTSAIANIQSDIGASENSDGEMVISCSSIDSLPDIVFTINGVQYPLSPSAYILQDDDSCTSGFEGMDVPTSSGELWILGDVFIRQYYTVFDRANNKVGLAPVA
Protocol: Samples were collected at 0, 3, and 24 h for all conditions except pepsin digestion and the SGF. For the latter two conditions, samples were obtained at 0, 1, and 3 h. Negative control samples were prepared for initial and final time points. […] All samples were analyzed by LC/MS
500 μL samples of 100 U/mL pepsin (Pepsin porcine gastric mucosa; Sigma-Aldrich, P68871; U=release of 0.01 absorbance at 280 nm (A280) as TCA soluble hydrolysis products per min at 37° C. of hemoglobin) were prepared in the pepsin reaction buffer (100 mM HCl-KCl, pH 2.0) in 5 mL polystyrene round bottom tubes. To the control samples (0 and 24 h), 500 μL of a 1 M ammonium acetate (pepsin inhibitor) stock were added, for a final concentration of 0.5 M. All control and test samples (0, 1, and 3 h) were incubated at 37° C. for 5 min, while shaking. […] Samples were returned to the 37° C. shaking water bath. Reactions were quenched by the addition of 500 μL of 1 M ammonium acetate for a final concentration of 0.5 M (except to the control samples, which already contained 0.5 M ammonium acetate). Samples were cooled on ice and stored at 4° C. until analysis. Upon analysis, samples were transferred to a 1 mL 96-well plate. […] These standards were used to generate a standard curve for quantification of samples. Ten (10) μL injections were made of each sample and standard.

[4] = tested on: adult male Wistar rats; test: water avoidance stress-induced visceral hyperalgesia model; format: in vivo, rat; settings: oral 3 μg/kg, FIG. 7f
Protocol: The effect of SEQ ID NO:3 on basal visceral nociception in a model of water avoidance stress-induced visceral hyperalgesia in adult male Wistar rats was tested. The stress involved confining rats to a platform surrounded by water for a period of 1 hour and then measuring their visceromotor response to colonic distension using electromyography (EMG).
Electrode leads were then tunneled subcutaneously and externalized laterally for future access. Following surgery, rats were housed in pairs and allowed to recover for at least 7 days. On the day of the experiment, animals were lightly anesthetized with halothane, and a lubricated latex balloon (6 cm) was inserted intra-anally into the descending colon. Animals were allowed to recover for 30 minutes, and colorectal distension (CRD) was initiated. The CRD procedure consisted of graded intensities of phasic CRD (10, 20, 40, 60 mmHg; 20 s duration; 4 min inter-stimulus interval). Visceromotor response (VMR) to CRD was quantified by measuring EMG activity. […] Animals were allowed 1 hour recovery and then SEQ ID NO:3 or vehicle was orally administered. At 1 hour following administration of SEQ ID NO:3 or vehicle CRD was repeated. […]
To determine the effect of SEQ ID NO:3 in a model of water avoidance stress-induced visceral hyperalgesia, a baseline CRD was recorded and then the animals were subjected to 1 hour of water avoidance stress. […]

[5] = molecular target: intestinal epithelial cells from wild-type and GC-C KO mice (Mus musculus, UniProt Q3UWA6); settings: 125I-SEQ ID NO:3 alone or with excess unlabeled SEQ ID NO:3, FIG. 9b
intestinal epithelial cells from wild-type and GC-C KO mice, sequence (Q3UWA6 20-1072): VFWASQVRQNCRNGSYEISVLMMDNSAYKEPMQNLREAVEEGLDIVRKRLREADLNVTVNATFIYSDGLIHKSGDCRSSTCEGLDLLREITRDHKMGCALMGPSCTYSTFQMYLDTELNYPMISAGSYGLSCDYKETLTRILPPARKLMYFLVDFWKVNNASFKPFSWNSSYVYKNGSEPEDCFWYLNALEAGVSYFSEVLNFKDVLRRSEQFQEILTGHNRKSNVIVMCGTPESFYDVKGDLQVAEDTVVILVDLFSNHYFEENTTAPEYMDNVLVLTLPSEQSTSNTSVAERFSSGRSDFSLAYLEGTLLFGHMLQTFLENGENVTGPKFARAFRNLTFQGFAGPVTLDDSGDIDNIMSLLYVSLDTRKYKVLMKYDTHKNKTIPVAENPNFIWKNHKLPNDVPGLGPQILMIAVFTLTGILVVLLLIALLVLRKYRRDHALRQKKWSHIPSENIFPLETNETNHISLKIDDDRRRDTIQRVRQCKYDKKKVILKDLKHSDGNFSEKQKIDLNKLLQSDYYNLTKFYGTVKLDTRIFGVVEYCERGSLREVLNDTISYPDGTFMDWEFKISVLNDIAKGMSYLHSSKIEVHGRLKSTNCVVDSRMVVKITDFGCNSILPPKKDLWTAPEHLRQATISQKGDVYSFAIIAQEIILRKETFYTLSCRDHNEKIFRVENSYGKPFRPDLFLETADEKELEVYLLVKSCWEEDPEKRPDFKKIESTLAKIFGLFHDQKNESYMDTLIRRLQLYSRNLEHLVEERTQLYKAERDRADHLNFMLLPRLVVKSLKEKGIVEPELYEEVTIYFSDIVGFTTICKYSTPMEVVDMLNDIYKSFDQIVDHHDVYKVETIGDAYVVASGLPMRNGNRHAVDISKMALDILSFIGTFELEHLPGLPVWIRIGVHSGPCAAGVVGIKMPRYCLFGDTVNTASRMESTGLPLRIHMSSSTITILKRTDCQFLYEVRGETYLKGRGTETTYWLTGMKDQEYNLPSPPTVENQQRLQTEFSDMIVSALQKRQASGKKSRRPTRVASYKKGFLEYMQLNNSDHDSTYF
Protocol: Mouse intestinal epithelial cells were prepared identical to that above as for rat intestinal epithelial cells except the cells were homogenized with an Omni homogenizer for 20 seconds on the maximum setting to make a suspension of cells. A competition binding assay was performed identical to that described above between ^125I labeled SEQ ID NO:3 and unlabeled SEQ ID NO:3 (competitor).

[6] = molecular target: aminopeptidase (Sus scrofa, UniProt P15145); settings: 37° C., up to 24 h
aminopeptidase, sequence (P15145 whole entry): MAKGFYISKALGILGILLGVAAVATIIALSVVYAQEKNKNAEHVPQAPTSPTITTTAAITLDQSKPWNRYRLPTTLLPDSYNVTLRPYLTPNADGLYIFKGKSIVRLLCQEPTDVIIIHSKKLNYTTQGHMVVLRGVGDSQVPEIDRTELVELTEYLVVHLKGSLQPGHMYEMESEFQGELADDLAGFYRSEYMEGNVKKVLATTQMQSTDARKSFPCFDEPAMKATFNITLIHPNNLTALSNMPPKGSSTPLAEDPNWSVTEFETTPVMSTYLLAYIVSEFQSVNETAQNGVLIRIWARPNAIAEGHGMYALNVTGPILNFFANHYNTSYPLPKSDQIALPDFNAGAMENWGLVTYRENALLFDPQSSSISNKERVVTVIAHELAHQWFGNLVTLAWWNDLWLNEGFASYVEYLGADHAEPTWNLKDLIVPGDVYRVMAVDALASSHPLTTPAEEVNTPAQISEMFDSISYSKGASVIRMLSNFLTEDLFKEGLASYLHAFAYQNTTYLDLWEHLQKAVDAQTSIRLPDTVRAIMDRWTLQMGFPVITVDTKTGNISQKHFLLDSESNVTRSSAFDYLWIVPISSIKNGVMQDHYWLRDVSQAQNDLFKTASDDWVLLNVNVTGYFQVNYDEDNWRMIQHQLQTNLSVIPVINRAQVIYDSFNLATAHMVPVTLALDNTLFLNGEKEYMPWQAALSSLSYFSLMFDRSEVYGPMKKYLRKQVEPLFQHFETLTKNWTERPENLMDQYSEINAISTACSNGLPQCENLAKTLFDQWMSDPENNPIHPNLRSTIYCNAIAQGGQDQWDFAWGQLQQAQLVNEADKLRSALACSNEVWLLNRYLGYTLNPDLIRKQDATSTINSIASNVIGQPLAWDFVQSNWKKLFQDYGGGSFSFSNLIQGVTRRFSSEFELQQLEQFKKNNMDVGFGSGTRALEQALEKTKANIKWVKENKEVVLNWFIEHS
Protocol: The stability of SEQ ID NO:3 in the presence of several mammalian digestive enzymes was determined. SEQ ID NO:3 was exposed to a variety of in vitro conditions including digestive enzymes and low ph environments designed to simulate gastric fluid. SEQ ID NO:3 was incubated with chymotrypsin, trypsin, pepsin, aminopeptidase, carboxypeptidase A, and simulated gastric fluid (sgf) at ph 1.0. Samples were collected at 0, 3, and 24 h for all conditions except pepsin digestion and the SGF. For the latter two conditions, samples were obtained at 0, 1, and 3 h. Negative control samples were prepared for initial and final time points. A separate, positive activity control was run in parallel to SEQ ID NO:3. All samples were analyzed by LC/MS
500 μL samples of 0.01 mg/mL SEQ ID NO:3 and chemically synthesized SEQ ID NO:4 (wild type ST; positive control) were prepared in the aminopeptidase reaction buffer (5 mM Tris-HCl, 5 mM MgCl2, pH 7.5) in 2 mL eppendorf tubes. 5 μL of a 5 mg/mL Bestatin hydrochloride (BioChemika, 08170; an aminopeptidase inhibitor) stock was added to each control sample (0 and 24 h), for a final concentration of 0.05 mg/mL. All control and test samples (0, 3, and 24 h) were incubated at 37° C. for 5 min. […] These standards were used to generate a standard curve for quantification of samples. […]

[7] = bioavailability study in mice, LCMS detection; format: in vivo; settings: CD1, mouse, serum, IV and oral, FIG. 10b, read-out: bioavailable
Protocol: A similar bioavailability study was performed in which LCMS rather than ELISA was used to detect SEQ ID NO:3. Initially, serum samples were extracted from the whole blood of exposed and control mice, then injected directly ([…]) onto an in-line solid phase extraction (SPE) column (Waters Oasis HLB 25 μm column, 2.0×15 mm direct connect) without further processing. The sample on the SPE column was washed with a 5% methanol, 95% dH2O solution (2.1 mL/min, 1.0 minute), then loaded onto an analytical column using a valve switch that places the SPE column in an inverted flow path onto the analytical column (Waters Xterra MS C8 5 μm IS column, 2.1×20 mm). The sample was eluted from the analytical column with a reverse phase gradient (Mobile Phase A: 10 mM ammonium hydroxide in dH2O, Mobile Phase B: 10 mM ammonium hydroxide in 80% acetonitrile and 20% methanol; 20% B for the first 3 minutes then ramping to 95% B over 4 min. and holding for 2 min., all at a flow rate of 0.4 mL/min.). At 9.1 minutes, the gradient returns to the initial conditions of 20% B for 1 min. SEQ ID NO:3 eluted from the analytical column at 1.45 minutes, and was detected by triple-quadrapole mass spectrometry (MRM, 764 (+2 charge state)>182 (+1 charge state) Da; cone voltage=30V; collision=20 eV; parent resolution=2 Da at base peak; daughter resolution=2 Da at base peak). […]

[8] = tested on: suckling mice; test: suckling mouse model of intestinal secretion (SuMi assay); format: in vivo; settings: dose response, FIG. 5a, 5b
Protocol: In this model a test compound is administered to suckling mice that are between 7 and 9 days old. After the mice are sacrificed, the gastrointestinal tract from the stomach to the cecum is dissected (“guts”). The remains (“carcass”) as well as the guts are weighed and the ratio of guts to carcass weight is calculated. If the ratio is above 0.09, one can conclude that the test compound increases intestinal secretion. […] The effect of Zelnorm® was also studied.

For `C[C@@H]1NC(=O)[C@@H]2CCCN2C(=O)[C@H](CC(N)=O)NC(=O)[C@@H]2CSSC[C@H](N)C(=O)N[C@H]3CSSC[C@H](NC1=O)C(=O)N[C@@H]([C@@H](C)O)C(=O)NCC(=O)N[C@H](C(=O)N[C@@H](Cc1ccc(O)cc1)C(=O)O)CSSC[C@H](NC(=O)[C@H](Cc1ccc(O)cc1)NC(=O)[C@H](CCC(=O)O)NC3=O)C(=O)N2` [SEQ ID NO:3] (H-CCEYCCNPACTGCY-OH; disulfide 1-6, 2-10, 5-13; N-terminus and C-terminus assumed), the “gastrointestinal motility upon chronic dosing” value [1] was “effective”, the “Mean Ease of Passage of stools, baseline versus treatment, placebo versus SEQ ID NO:3” value ([2]; 1000 μg dose group, FIG. 15e) was “greatest difference” and the “Mean Stool Weight” value ([2]; seven daily oral doses 30-1000 μg, higher doses, FIG. 15C) was “increase”. For the same compound, the “Mean Stool Frequency (stools per week)” value ([2]; seven daily oral doses 30-1000 μg, higher doses, FIG. 15b) was “increase”, the “Cleavage of SEQ ID NO: 3 by proteolytic substance” value [3] was “not detectable” and the “visceromotor response to CRD 24 hours after water avoidance stress” value [4] was “exhibited anti-hyperalgesic properties”. The “binding to intestinal epithelial cells, GC-C KO compared to wild-type mice” value [5] was “reduction in SEQ ID NO:3 binding”, the “Cleavage of SEQ ID NO: 3 by proteolytic substance” value [6] was “not detectable” and the bioavailability [7] was under 0.11%. For the same compound, the “intestinal secretion (ratio of guts to carcass weight)” value [8] was “increase intestinal secretion”.
